Source: patent US20200079765A1, “SUBSTITUTED HETEROARYL PYRROLONES AND SALTS THEREOF AND USE THEREOF AS HERBICIDAL ACTIVE SUBSTANCES” (Bayer CropScience Aktiengesellschaft, priority 2016, published 2020)

Key:
[1] = molecular target: T1, photosystem II (PS II) (Spinacia oleracea, UniProt P69560); test: Measurement of the PS II activity in thylakoid membranes (DCPIP reduction, Experimental Part 3, Table E1); type: biochemical; conditions: spinach thylakoid membranes
T1 construct: the chloroplasts were osmotically ruptured and the thylakoid membranes were then obtained by centrifugation; from tissue; host or cells: thylakoid membranes from fresh spinach leaves
Summary of the method: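 Spinach leaf thylakoid membranes in 50 mM phosphate pH 6.8, 10 mM KCl, 120 μM DCPIP, under light. Compounds added from 100 μM DMSO solution (2.5% DMSO final). DCPIP reduction read as absorbance decrease at 595 nm over 10 min at 22 °C, reported as percent-inhibition classes.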

[2] = tested on: Lolium rigidum; test: Post-emergence herbicidal action (Experimental Part 1, A); type: in vivo; conditions: application rate 1280 g/ha, rated visually after about 3 weeks
Summary of the method: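 Plants grown in sandy loam in the greenhouse were sprayed at the one-leaf stage, 2 to 3 weeks after sowing, with WP or EC formulations in water plus 0.5% additive at 600 l/ha. Rates were 1280 g/ha or 320 g/ha. Damage was scored visually after about 3 weeks versus untreated controls.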

Effect (inhibition of PS II activity) [1] | SMILES | Lolium rigidum, herbicidal activity [2] [%]
++++ (inhibition≥90%) | CC1=CC(=O)N(c2cc(C(C)(C)C)on2)C1O (stereo not drawn) [I.1-162, 5-Hydroxy-4-methyl-1-(5-tert-butyl-1,2-isoxazol-3-yl)-1,5-dihydro-2H-pyrrol-2-one] | –
+++ (90%>inhibition≥70%) | CCC(=O)OC1C(C)=CC(=O)N1c1cc(C(C)(C)C)on1 (stereo not drawn) [I.5-162] | 90
